Experimental data from paper PMC12373846, “Hemoglobin as a pseudoperoxidase and drug target for oxidative stress-related diseases” (Signal Transduction and Targeted Therapy, 2025).

Columns and labels:
[1] = DPPH radical scavenging assay; conditions: Fig. S1e
Protocol: In a 96-well microplate, samples (20 μl) at concentrations ranging from 0.1 to 100 μM were mixed with 80 μL of 50 mM sodium phosphate buffer (pH 7.2) and 100 μL of DPPH (1,1-diphenyl-2-picrylhydrazyl) solution (250 μM in methanol) and incubated for 30-min in the dark. Each sample was quantified using a microplate fluorescence reader (SpectraMax iD5, Molecular Devices) at absorbance (517 nm). Edaravone was used as a positive control. The radical scavenging activity was estimated using the following equation: sample absorbance / control absorbance ×100. The dose-response curve, EC50 for the DPPH, was calculated and determined by fitting data with GraphPad Prism software. The fitting method had no special handling of outliers.

[2] = system: primary cultured hippocampal astrocytes; experiment: DCFDA intracellular ROS assay; assay type: cell-based, mouse; conditions: for ROS level (DCFDA): Fig. 3d
Protocol: (§1) Primary hippocampal astrocytes were obtained from postnatal day 0‒2 (P0‒2) C57BL/6 mice as previously described.[73] The hippocampal tissue was dissected free of meninges, minced, and dissociated into a single-cell suspension by trituration. The cells were grown in Dulbecco’s modified Eagle’s medium supplemented with D-glucose (4500 mg/L), L-glutamine, sodium pyruvate (110 mg/L), 10% heat-inactivated horse serum, 10% heat-inactivated fetal bovine serum, and 1000 U/ml penicillin‒streptomycin. The cells were maintained at 37 °C in a humidified atmosphere containing 5% CO2.
The intracellular ROS levels of astrocytes were determined via 2′,7′- dichlorodihydrofluorescein diacetate (DCFDA; Thermo Fisher). Primary cultured hippocampal astrocytes were seeded into black 96-well plates (Ibidi) at a density of 5 × 10⁴ cells per well. The plates were incubated with oligomerized Aβ42 in the presence of KDS12008, KDS12017, KDS12025, HTPEB (10 µM each), and sodium pyruvate (1 mM). These cells were subsequently washed with Ca^2+ and Mg^2+-containing PBS, followed by the application of 30 µM DCFDA and incubation at 37 °C for 30 min in a dark incubator. The mean fluorescence intensity of each well was measured via iD5 microplate readers at 485 nm and 530 nm. The fluorescence values were calculated by subtracting the blank readings and normalizing them to those of the control group.

[3] = system: primary cultured hippocampal astrocytes; experiment: oROS-G intracellular H2O2 imaging; assay type: cell-based, mouse; conditions: for oROS-G fluorescence (intracellular H2O2): Fig. 3f
Protocol: as §1
H2O2 specific, highly sensitive, and fast on-and-off kinetics, a genetically encoded oROS-G plasmid kindly provided by Dr. Andre Berndt. oROS-G was cloned under the GFAP104 promoter and delivered into primary cultured hippocampal astrocytes via the NeoN^TM transfection system (Invitrogen). The cells were treated with various concentrations of Aβ (1 to 10 μM) or 6-OHDA (Tocris, 2547; 10 to 50 μM) to induce aberrant H2O2. For subsequent experiments, 5 μM Aβ and 30 μM 6-OHDA were selected on the basis of initial dose‒response studies. KDS12025 (10 μM) and sodium pyruvate (1 mM) were applied as indicated in each experiment. For live-cell imaging, astrocytes were maintained in a humidified chamber at 37 °C with 5% […] during imaging to preserve physiological conditions. Changes in the fluorescence of oROS-G were recorded via an A1 Nikon confocal microscope equipped with a temperature- and humidity-controlled stage. Images were captured every 20 min for up to 40 h (20for the 6-OHDA experiments) via the NIS-Elements software (Nikon, Japan) for time-lapse imaging. The excitation and emission wavelengths for oROS-G fluorescence were set to 485 nm and 538 nm, respectively. Endpoint fluorescence measurements were also collected for KDS12025 dose-dependent experiments. To analyze the fluorescence intensity, individual regions of interest (ROIs) were manually selected for each astrocyte via NIS-Elements software (Nikon, Japan). The fluorescence intensity changes were normalized to the baseline values (ΔF/F0) to quantify the H2O2 dynamics. To determine the EC50 of KDS12025, endpoint fluorescence intensity data from oROS-G experiments were normalized to those of the Aβ+vehicle control group. The normalized data were analyzed via GraphPad Prism software to fit a four-parameter logistic curve, yielding the EC50 value for the H2O2-decomposing activity of KDS12025.

HRP = molecular target: T1, HRP (Armoracia rusticana, UniProt P00433); experiment: ROS-Glo H2O2 assay with HRP; assay type: biochemical, horseradish
T1 sequence (P00433 31-353): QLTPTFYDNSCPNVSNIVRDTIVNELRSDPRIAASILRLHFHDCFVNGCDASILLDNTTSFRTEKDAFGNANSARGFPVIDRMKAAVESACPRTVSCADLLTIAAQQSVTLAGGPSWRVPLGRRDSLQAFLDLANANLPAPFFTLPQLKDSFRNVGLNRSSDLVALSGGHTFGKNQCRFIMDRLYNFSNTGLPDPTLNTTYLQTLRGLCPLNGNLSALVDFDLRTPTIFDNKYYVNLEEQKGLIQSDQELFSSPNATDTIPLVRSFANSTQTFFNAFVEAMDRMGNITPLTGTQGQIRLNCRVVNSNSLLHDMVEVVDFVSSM
Protocol: Hb (Sigma‒Aldrich, H7379), H2O2 (Sigma‒Aldrich, H1009), and Amplex Red reagents (Invitrogen, A12222) were obtained for the study. A 4 μM H2O2 solution was prepared in 50 mM sodium phosphate buffer (pH 7.2). Then, 49 μl of this mixture was mixed with 1 μl of the test compound in DMSO or distilled water. The mixture was combined with an assay mixture of Amplex Red reagent (20 mM stock to 0.1 mM) and HRP (200 U/ml stock to 0.2 U/ml) and added to the wells at 50 μl/well. After a 60-min incubation at 37 °C, resorufin production was quantified via a microplate fluorescence reader (SpectraMax iD5, Molecular Devices) at ex/em = 535/580 nm. […] For the ROS-Glo assay, the H2O2 substrate solution and ROS-Glo detection solution were prepared according to the manufacturer’s instructions. 10 μM H2O2 and drugs were prepared as in the Amplex Red assay, with HRP, Hb, CAT, or GPx added as needed. The mixture was added to the wells at 100 μl/well and incubated for 60 min at 37 °C. H2O2 substrate solution was added, and the mixture was incubated at room temperature for 30 min. After the H2O2 substrate solution was added and incubated at room temperature for 30 min, the ROS-Glo detection solution was added, and the mixture was incubated for 15 min. Luminescence was measured via iD5 microplate readers. […] The U/ml was calculated on the basis of the amount of H2O2 reduced by Hb during the reaction, using μg/ml and U/mg.
To evaluate the extent of peroxidase function facilitation by HTPEB (1 μM) and KDS12025 (1 μM) in HRP (0.2 U/ml) and Hb (10 μg/ml), we used the ROS-Glo assay over 30 and 60 min. The fold change was calculated by dividing the delta values during the 30-min reaction for the vehicle over drug conditions.

CC1=NN(c2ccccc2)C(=O)C1 [Edaravone]
IC50 [1]: 16.7 µM

Aβ: oligomerized Amyloid-beta (Aβ)42 aggregates [reference compound]
ROS level (DCFDA) ([2]; Aβ 1μM): 101.9±6.217 | ROS level (DCFDA) ([2]; Aβ 5μM): 137.3±8.218 | ROS level (DCFDA) ([2]; Aβ 10μM): 155.2±9.442 | oROS-G fluorescence (intracellular H2O2) ([3]; Aβ 1μM): 109.4±4.271 | oROS-G fluorescence (intracellular H2O2) ([3]; Aβ 5μM): 140.5±4.407 | oROS-G fluorescence (intracellular H2O2) ([3]; Aβ 10μM): 208.1±3.662

HRP: horseradish peroxidase, plant-derived heme-containing peroxidase
EC50 of HRP for H2O2 decomposition without HTPEB (HRP; Fig. S1a): 0.062 U/ml | tau value, reaction time-response of HRP without HTPEB (HRP; Fig. S1b): 13.7 min

CC(=O)C(=O)[O-].[Na+] [Sodium pyruvate, sodium pyruvate, reference compound]
Aβ-induced ROS level (DCFDA), normalized to control ([2]; Aβ 5μM + sodium pyruvate 1mM, Fig. 3e): 149.1±6.194 | oROS-G H2O2 level ([3]; 6-OHDA 30 μM + sodium pyruvate, Fig. 3k): 177.0±17.5 | oROS-G H2O2 level, 40-h imaging ([3]; Aβ 5 μM + sodium pyruvate 1 mM, Fig. 3h): 137.5±9.751 | oROS-G H2O2 level, 40-h imaging ([3]; putrescine 180 μM + sodium pyruvate 1 mM, Fig. 3i): 189.0±23.55
